Measurements reported in patent US20060153931A1, “Prevention of flap necrosis in plastic surgery” (priority 2001, published 2006).
Ends that are not written are not given here.

Assays:
[1] = tested on: skin flaps based on the epigastric artery and vein; test: Rat epigastric skin flap model, ET-1 induced pedicle vasoconstriction (Background Example 1); type: in vivo, rats
[2] = tested on: free tissue transfer of forearm tissues to the face; conditions: human, in vivo
[3] = tested on: coronary artery bypass grafts; test: Patient with coronary artery bypass, vasospasm of the grafts (Example II); type: in vivo, human
pedicle flap = conditions: 30 minutes after lidocaine application, topical to pedicle; cited from earlier work
headache = type: in vivo; conditions: oral capsules each containing 100 mg aspirin and 200 mg of CX—NO
Method: CX—NO of Example 14 of U.S. Pat. No. 6,403,759 is formulated in a gel at 50 mM and is admixed with aspirin and the combination used to fill capsules each containing 100 mg aspirin and 200 mg of CX—NO. […] Alternatively, the CX—NO is used as or included in a coating for aspirin tablets (100 mg aspirin in a tablet), and administration orally of the coated aspirin provides the same result.

[4] = tested on: island skin flaps based upon the epigastic artery and vein; test: Rat island skin flap model, ET-1 induced vasoconstriction, CX—NO (Background Example 2); type: in vivo, rats; conditions: 0.25 ml of 3.17 mM CX—NO in DMSO, 15 min after ET-1, FIG. 1
[5] = 30 min after application, 2% lidocaine or 10^−4M ENO, 15 min after ET-1, mean±SEM
[6] = addition of 100 μM ethyl nitrite after lidocaine (2%)
[7] = topical 10^−5 M ET-1 on pedicle

For CCON=O [ENO, ethyl nitrite], the “overall effect on arterial dilation and blood flow (in words)” value ([1]; 2% lidocaine vs 10^−4M ENO) was “longer lasting and greater effect”, the “time after application from which restoration of arterial diameter is greater compared to lidocaine (p<0.05)” value ([1]; 10^−4M ENO vs 2% lidocaine) was 10 min and the “time after application from which restoration of blood flow is greater compared to lidocaine (p<0.05)” value ([1]; 10^−4M ENO vs 2% lidocaine) was 13 min. The arterial diameter ([1]; 1 min after application (lidocaine: within 1 min), 2% lidocaine or 10^−4M ENO, 15 min after ET-1, mean±SEM) was 83±5 % of baseline, the flap blood flow ([1]; 2 min after application, 2% lidocaine or 10^−4M ENO, 15 min after ET-1, laser Doppler, mean±SEM) was 62±6 % of baseline and the flap blood flow ([1]; 30 min after application, 2% lidocaine or 10^−4M ENO, 15 min after ET-1, laser Doppler, mean±SEM) was 86±10 % of baseline. The arterial diameter [1, 5] was 98±5 % of baseline, the vein diameter [1, 5] was 75±5 % of baseline and the “vasodilation and blood flow after vasospasm” value [2] was “vasodilation and flow is restored”. For the same compound, the “EKG (ischemia)” value [3, 6] was “normalized EKG” and the “blood flow in grafts” value [3, 6] was “restored flow”.

For CC(N=O)(S(C)(=O)=O)S(C)(=O)=O [compound (1)], the “vasodilation and blood flow after vasospasm” value [2] was “same result”.

For CCN(CC)CC(=O)Nc1c(C)cccc1C [lidocaine, reference compound], the “effect on vasoconstriction / blood flow, decreasing to % of baseline” value (pedicle flap) is given as ≤ 50 % of baseline and the “blood flow in grafts” value ([3]; topical lidocaine (2%)) is given as “temporary but marginal blood flow”.

With “ET-1: Endothelin-1, applied topically to induce pedicle vasoconstriction (CSCSSLMDKECVYFCHLDIIW; ends and bridges not checked; cysteine pairing not given here; UniProt P05305 53-73, looked up) [reference compound]” the “vasoconstriction of the epigastric artery” value [1, 7] was 69-76%, the “vasoconstriction of the epigastric vein” value [1, 7] was 43-72% and the “reduction of flap blood flow to % of baseline” value ([1]; topical 10^−5 M ET-1 on pedicle, laser Doppler) was 35-45 % of baseline.

For O— and S-nitrosylated β-cyclodextrin, the headache relief (headache) was “relieved headache”.

For “nitrosylated polythiolated cyclodextrin [CX—NO]”, the “arterial diameter as a percentage of baseline” value [4] was “increase”, the “vein diameter as a percentage of baseline” value [4] was “increase” and the “blood flow in small vessels as a percentage of baseline flow” value ([4]; laser Doppler) was “increase”.
